Test results reported in a melting point compilation (Tetko et al.; mined from patent text by program, amines drawn as free bases though some values may be those of a salt).

Structure (SMILES) | melting point [°C]
Cc1ccc(S(=O)(=O)Nc2nc(C)c(C(=O)NCc3ccccc3)s2)cc1 | 242 to 245
O=c1cc(-c2ccncc2)nc2n1CCN2 | 318 to 320
N#Cc1ccnc(C2=NC(c3ccc(F)cc3)(c3ccc(F)cc3)CN2)c1 | 206 to 208
COC(C(C)C)C(C)(C)C(=O)Nc1ccc(Cl)cc1 (centres undefined) | 103 to 107
O=C(c1cc(-c2ccc(OCc3ccccc3)cc2)c(=O)n2ccc3ccsc3c12)N(CCN1CCOCC1)c1ccccc1 | 168 to 170
CCCC(CCC)(CCC)C(=O)O | 67
CNC(=O)c1ncnc(C)c1NC(=O)c1cc(Cl)nn1-c1ncccc1Cl | 205 to 207
Cc1noc(NS(=O)(=O)c2ccccc2-c2ccccn2)c1C | 136 to 137
O=C(CNC(=O)c1ccccc1)c1ccccc1 | 114 to 120
CCCCCCc1cc2c(s1)-n1c(C)nnc1CN=C2c1cc(C)ccc1C | 81 to 84
Cc1cccc(C)c1N(CCl)C(=O)c1ccccc1 | 133
CN1CCN(C2=Nc3cc(Br)ccc3N3CCc4cc(Br)cc2c43)CC1 | 215 to 216
CCOC(=O)c1c[nH]c2ccc(C(=O)c3c(C)c(OC)c4ccccn34)cc2c1=O | 271
COc1ccc2[nH]cc(CCCN(C3CCC3)C3COc4c(F)ccc(C(N)=O)c4C3)c2c1 (centres undefined) | 151 to 158
C=CCCCCCCCCc1nc2c(s1)NCCCC2 | 94 to 95
CN(C)C1(c2ccccc2)CCC(c2[nH]c3ccccc3c2Cc2ccccc2)CC1 (centres undefined) | 194 to 199
Cc1cc(N)cc(C)c1S(=O)(=O)NCCSCCN | 150 to 160
Cc1c(S(C)(=O)=O)ccc(C(=O)C2SCCCC2=O)c1Cl (centres undefined) | 142 to 144
Cc1cc(-c2cc3ncccc3c(=O)[nH]2)cc(C)c1O | > 350
CS(=O)(=O)N[C@H]1CC[C@H](CCN2CCN(c3nccc4c3CCO4)CC2)CC1 | 220
COc1ccc(CN(C)CCc2ccc(NC(=O)c3cccc4c(=O)c5c(OC)ccc(OC)c5[nH]c34)cc2)cc1OC | 196
CCCCCN(CCC12CC3CC(CC(C3)C1)C2)C(=O)NCCCn1ccnc1 | 97 to 100
CCOc1nsc(NC(=O)Oc2ccccc2)c1C#N | 252 to 253
CCCCN(c1nc(N(CC)CC)nc(N(CCCC)C2CC(C)(C)N(OC)C(C)(C)C2)n1)C1CC(C)(C)N(OC)C(C)(C)C1 | 109 to 112
COC(=O)C(=Cc1ccc(OC)c(OCCc2ccccc2)c1)C(=O)OC | 105 to 106
C#CC(C)(C)c1cc(NC(=O)NC)no1 | 99 to 100

Structure (SMILES) | melting point [°C]
CCOC(C)c1ccc(OCCOc2ncnc(NS(=O)(=O)c3ccc(C(C)(C)C)cc3)c2-c2ccc(C)cc2)cc1 (centres undefined) | 139 to 140
O=C(Cc1ccccc1Cl)Nc1ccc(C(=O)N2Cc3ccccc3Cc3ccccc32)cc1 | 191 to 194
O=C1NC(=Cc2ccccc2Cl)C(=O)C1=NO | 176
Cc1cccc2c(-c3ccc(Cl)cc3)nccc12 | 122 to 124
CCCOC1=C(c2ccccc2)C(CCC(=O)O)OC1=O (centres undefined) | 123 to 125
C#CCN(Cc1ccc2nc[nH]c(=O)c2c1)c1ccc(C(=O)NCc2cccnc2)cc1 | 137 to 139
COc1ccc2c(c1)c(CC(=O)OCC(=O)O)c(C)n2C(=O)c1ccc(C(F)(F)F)cc1 | 166 to 167
Cc1c(OCC(=O)O)ccc2c(=O)c3c(F)cccc3oc12 | 259 to 261
O=C(O)c1ccc(Cn2cc(C3c4ccccc4C=Cc4ccccc43)c(=S)[nH]c2=O)o1 | 178 to 180
COc1cc(Nc2nccc(Nc3ccc(N4CCN(C)CC4)cc3)n2)cc(OC)c1OC | 104
COc1c(C)cc(C(=O)N2CCN(c3ncccc3NC(C)C)CC2)cc1C | 89 to 93
CCCCN(CCCC)CCCOc1ccc(S(=O)(=O)c2cn[nH]c2C(C)C)cc1 | 53
CN1CCC(c2c3n(c4ccc(O)cc24)CCC3)CC1 | > 250
COc1ccc2nc(COc3ccc(NC(C)=O)cc3)sc2c1 | 145 to 147
CCOC(=O)Cc1cccc(N[C@@H](CCC(N)=O)C(=O)O)c1 | 176
CC(C)c1nn(-c2c(Cl)cc(C(F)(F)F)cc2Cl)c(Cl)c1-c1nc(C#N)c(C#N)[nH]1 | 96 to 99
COc1cc(OC)c2cc(-c3cc(OC)c(OC)c(OC)c3)oc2c1 | 131 to 132
CC1(NC2=NS(=O)(=O)c3sc(Cl)cc3N2)CCC1 | 294 to 296
CCCCC1OC(=O)c2cc(NC(N)=S)ccc21 (centres undefined) | 183 to 185
ON=C1c2sccc2-n2cccc21 | 172
CC(C)C[C@H](NC(=O)[C@H](Cc1ccccc1)NC(=O)CCC(=O)O)C(=O)O | 156 to 158
CCCC1=NC(=NOC(=O)NC)SC1(C)C | 112 to 114
CC(C)(O)c1ccnc(-c2ccc3nc(-c4n[nH]c5ccccc45)cn3c2)c1 | 255 to 259
N#Cc1cnccc1O | 234 to 236
CS(=O)(=O)c1ccc(Oc2ccc(Cl)c(Cl)c2)c(Cl)c1 | 102 to 104

Other lines, results leading:

melting point [°C] | Structure (SMILES)
98 to 107 | COc1cc2c(cc1Nc1ncc(Cl)c(N[C@@H]3CCCC[C@H]3NS(C)(=O)=O)n1)CCN(C(=O)C(F)(F)F)CC2
160 to 163 | O=C(NCCCO)c1cc(O)c(O)c([N+](=O)[O-])c1
94 to 95 | COCCN(CCOC)c1ccc(Nc2ncc3c(C)c(Br)c(=O)n(C4CCCC4)c3n2)nc1
221 to 224 | COc1cc(OC)c2nccc(O)c2c1
117 to 120 | CC(C)(CCl)C(=O)N(Cc1ccccc1Cl)OC(=O)c1ccccc1
164 to 166 | CCCCNC(=O)NS(=O)(=O)c1ccccc1S(=O)(=O)C(C)C
139 to 141 | CCCNC(=O)CCCCCn1c(CCC)nc2c(N)nc3ccccc3c21
168 | COc1ccc(N2CCNC2=O)cc1OC
161 to 162 | CC(C)(C)c1ccc(NC(=N)Nc2ccc(C(C)(C)C)cc2)cc1
161 | CCCC1Cc2c3c(c(C)c(C)c2C1O)OC(C(=O)O)C3 (centres undefined)
77 to 78 | CCOC(=O)[C@H]1[C@@H]2C=CC(=O)[C@@H]21 (racemic)
179 | Cc1cc(C)c(O)c(-c2cc(C(C)C)ccc2C(C)C)c1
194 | Cc1c(-c2ncc([N+](=O)[O-])n2C)cnn1-c1ccccc1
196 to 200 | CSc1nc(-c2nn[nH]n2)c(I)c(C(F)(F)F)n1
215 to 216 | Oc1ccc2nscc2c1
180 to 182 | CCOc1cc2c(cc1OCC)-c1c(C#N)sc(=N)n1CC2
145 to 149 | CCOC(=O)C(Cc1c(OCC)noc1-c1ncn(C(c2ccccc2)(c2ccccc2)c2ccccc2)n1)(NC(C)=O)C(=O)OCC
290 | Oc1ccnc2ncnn12
200 to 202 | COc1cc(C(=O)NCc2ccc3c(c2)C(=C2CCN(C)CC2)c2ccccc2C=C3)cc(OC)c1OC
38 to 40 | CCCCCCCCCCCCON(Cc1ccccc1)C(c1ccccc1)P(=O)(OCCCCCCCCCCCC)OCCCCCCCCCCCC (centres undefined)
189 to 190 | CC(=O)Nc1ccc(C=CC(=O)C(C)CC(=O)O)cc1 (centres undefined)
171 to 172 | CCN(CC)CCn1nc2c3c(c(NCCN4C(=O)c5ccccc5C4=O)ccc31)Sc1cc(OC)ccc1-2
168 to 170 | COc1ccc(-c2ocnc2-c2cc(OC)c(OC(F)(F)F)c(OC)c2)cc1N
85 to 87 | Cn1cc(C#N)c([N+](=O)[O-])n1

melting point [°C] | Structure (SMILES)
174 to 176 | Cc1ccccc1-c1ccc(C(=O)N2Cc3ccc(C(=O)NCCc4cccc(Cl)c4)n3Cc3ccccc32)cc1C
116 to 118 | COCCN1CCc2ccc(Nc3ncc4ccc(-c5ccccc5)n4n3)cc2CC1
86.8 to 90 | COc1cc(C=O)ccc1OCC(=O)OC(C)(C)C
162 to 164 | COc1ccc(N2CCN(c3c(C)c(C)c4c(c3C)OC(C)(C)C4(O)c3ccc(C)cc3)CC2)cc1 (centres undefined)
190 to 191 | COC(CNC(=O)N(N=Cc1ccccc1)c1cc(Cl)c(C(C#N)c2ccc(Cl)cc2)c(Cl)c1)OC (centres undefined)
159 to 160 | O=C(c1ccco1)c1cnn2c(-c3cccc(N4CCCCC4=O)c3)ccnc12
208 to 210 | CC(C)(C)OC(=O)N1CCn2c(-c3ccccc3)cc(C(N)=O)c2C1
209 to 211 | O=C(NCCSc1ccccn1)Nc1cc(N2CC(c3ccccc3)OC2=O)ccn1 (centres undefined)
326 to 328 | NC(=O)c1nc2cnc3ccccc3c2[nH]1
131 to 132 | COc1cc(OC)nc(Sc2cccc(C)c2C(=O)O)n1
91 | O=[N+]([O-])c1cccc(S(=O)(=O)NCC2CC2)c1
287 to 289 | COc1cc2c3c(nc4ccc(Cl)cc4c3c1)-c1ccc(Cl)cc1N2C
> 300 | Cc1ncc([N+](=O)[O-])n1-c1nccc2[nH]c(=O)ccc12
160 to 162 | CN1CCN(c2cc3c(cc2F)c(=O)n(O)c(=O)n3-c2ccccc2F)CC1
40 to 43 | CCCCCCCCCCCCC(=O)CC(O)Cc1ccccc1 (centres undefined)
226 to 228 | CN(C)C(=O)c1cnn(-c2c(Cl)cc(Cl)cc2Cl)c1N
132 | O=C(NCC1(c2ccccc2)CCCC1)N1CCC(Sc2ccc(CCNC[C@H](O)COc3ccc(O)cc3)cc2)CC1
186 | CN1C(=O)c2c(Oc3ccccc3OS(=O)(=O)C(F)(F)F)cc3c(c2C1=O)c1ccc(OCc2ccccc2)cc1n3C(=O)OC(C)(C)C
115 to 117 | COc1c(C(=O)O)n(Cc2ccccc2)c2ccccc12
197 to 200 | Nc1nc(=O)n(CCCCn2cncn2)cc1F
98 to 100 | COc1ccc2c(c1)cc(Cc1cc3ccccc3n1S(=O)(=O)c1ccccc1)n2S(=O)(=O)c1ccccc1
104 to 105 | CCNC(=O)c1c([Si](C)(C)C)ccc(CF)c1Cl
61 to 63 | OC(c1ccccc1)c1ccccc1Cl (centres undefined)
180 | Cc1ccc(-c2cc(C(O)C#Cc3ccc(C(=O)O)cc3)cc3c2C(C)(C)CCC3(C)C)cc1 (centres undefined)
